Usually IC50 stands for the concentration at which inhibition is half-maximal.

Consider eleven compounds from patent publication US6001867A, “1-aryl-dibenzothiophenes” (American Home Products Corporation, priority 1999, dated 1999).

Data set [1] concerns rat hepatic microsomal PTPases. The following applies: test compound 50 μM; rat hepatic microsomal fraction; substrate 50 uM, 37 deg.C.
For data set [2], the target named is T1, Human recombinant PTP1B (hPTP1B) (Homo sapiens, UniProt P18031).
T1 sequence (P18031 1-435): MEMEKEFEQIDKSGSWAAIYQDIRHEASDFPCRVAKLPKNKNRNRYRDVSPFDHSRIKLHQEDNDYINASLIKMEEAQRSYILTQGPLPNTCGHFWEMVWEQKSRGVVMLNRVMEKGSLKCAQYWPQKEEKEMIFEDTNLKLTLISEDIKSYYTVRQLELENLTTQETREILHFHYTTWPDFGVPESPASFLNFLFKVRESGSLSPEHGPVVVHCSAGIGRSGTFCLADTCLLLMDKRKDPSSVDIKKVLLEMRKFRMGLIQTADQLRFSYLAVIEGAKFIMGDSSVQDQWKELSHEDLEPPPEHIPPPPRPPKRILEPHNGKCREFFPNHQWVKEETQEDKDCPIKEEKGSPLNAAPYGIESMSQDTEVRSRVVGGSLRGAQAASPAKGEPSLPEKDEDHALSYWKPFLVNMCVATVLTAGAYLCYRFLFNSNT

For data set [3] the following is noted: literature study; cited from earlier work.

For the compound `O=C(O)COc1ccc(-c2cccc3sc4ccccc4c23)cc1` [Example 12, [4-(Dibenzothiophen-1-yl)-phenoxy]-acetic Acid], the “% Change from Control (PTPase activity)” value in data set [1] is on record as -19.49%.

Take `O=C(O)[C@@H](CCN1C(=O)c2ccccc2C1=O)Oc1c(Br)cc(-c2c(Br)ccc3sc4ccccc4c23)cc1Br` [Example 21, (R)-2-[2,6-Dibromo-4-(2-bromo-dibenzothiophen-1-yl)-phenoxy]-4-(1,3-dioxo-1,3-dihydro-isoindol-2-yl)-butyric acid]: the IC50 in data set [2] stood at 1390 nM. In addition, the “% Change from Control (PTPase activity)” value in data set [1] is given as -87.44%.

In the case of `Oc1ccc(-c2cccc3sc4ccccc4c23)cc1` [Example 3, 4-(Dibenzothiophen-1-yl)-phenol], in data set [1], the “% Change from Control (PTPase activity)” value is on record as -51.63%.

Consider `COC(=O)COc1ccc(-c2c(Br)ccc3sc4ccccc4c23)cc1` [Example 10, [4-(2-Bromo-dibenzothiophen-1-yl)-phenoxy]-acetic Acid Methyl Ester], for which the “% Change from Control (PTPase activity)” value in data set [1] is recorded as -21.11%.

As for `Oc1ccc(-c2c(Br)ccc3sc4ccccc4c23)cc1` [Example 6, 4-(2-Bromo-dibenzothiophen-1-yl)-phenol], in data set [1], the “% Change from Control (PTPase activity)” value is on record as -31.13%.

For the compound `O=C(O)[C@@H](Cc1ccccc1)Oc1c(Br)cc(-c2cccc3sc4ccccc4c23)cc1Br` [Example 19, (R)-2-[2,6-Dibromo-4-(dibenzothiophen-1-yl)-phenoxy]-3-phenyl-propionic acid], in data set [2], the IC50 is 1330 nM. Further, the “% Change from Control (PTPase activity)” value in data set [1] is on record as -81.43%.

On to `O=C(O)COc1c(Br)cc(-c2cccc3sc4ccccc4c23)cc1Br` [Example 14, [2,6-Dibromo-4-(dibenzothiophen-1-yl)-phenoxy]-acetic acid], for which, in data set [1], the “% Change from Control (PTPase activity)” value is -74.88%.

Turning to `Oc1c(Br)cc(-c2cccc3sc4ccccc4c23)cc1Br` [Example 7, 2,6-Dibromo-4-(dibenzothiophen-1-yl)-phenol], the IC50 in data set [2] was 1890 nM. Besides, the “% Change from Control (PTPase activity)” value in data set [1] is given as -18.53%.

On to `O=C(O)COc1ccc(-c2c(Br)ccc3sc4ccccc4c23)cc1` [Example 13, [4-(2-Bromo-dibenzothiophen-1-yl)-phenoxy]-acetic Acid], for which the “% Change from Control (PTPase activity)” value in data set [1] is -42.62%.

As to `O=C(O)[C@@H](Cc1ccccc1)Oc1c(Br)cc(-c2c(Br)ccc3sc4ccccc4c23)cc1Br` [Example 20], in data set [2], the IC50 stood at 604 nM. The “% Change from Control (PTPase activity)” value in data set [1] is on record as -75.69%.

`CN(C)c1ccc(-c2cccc3sc4ccccc4c23)cc1` [compound A (R=NMe2, R'=H)]: in data set [3], the carcinogenicity result was “inactive”.
